Reference: ChEMBL document CHEMBL1201862, “PubChem BioAssay data set” (2004)
Activity calls are given as the source filed them. Cut-off read from the data, not from the text of the source, for most assays here: actives have a measured AC50 and inactives only a lower limit.

Legend:
Trypsin = Trypsin (Sus scrofa, UniProt P00761); assay: trypsin protease activity blockade – biochemical, quenched peptide fluorescence, cherry-pick, selectivity assay for Rce1 protease inhibitor project, dose response (AID 488789)
Chain of Trypsin (P00761 whole entry): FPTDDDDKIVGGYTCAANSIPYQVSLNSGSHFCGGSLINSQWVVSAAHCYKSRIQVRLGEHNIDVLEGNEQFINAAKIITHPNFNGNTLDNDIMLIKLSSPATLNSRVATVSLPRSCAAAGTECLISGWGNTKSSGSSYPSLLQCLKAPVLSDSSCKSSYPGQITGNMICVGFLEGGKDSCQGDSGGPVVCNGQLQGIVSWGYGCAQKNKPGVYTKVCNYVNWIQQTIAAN

CAAX prenyl protease 2 = CAAX prenyl protease 2 (Homo sapiens, UniProt Q9Y256); assay: inhibition of Ras-converting CAAX protease Rce1 – biochemical, yeast membranes, quenched-peptide fluorescence, cherry-pick, dose response (AID 588849)
Chain of CAAX prenyl protease 2 (Q9Y256 whole entry): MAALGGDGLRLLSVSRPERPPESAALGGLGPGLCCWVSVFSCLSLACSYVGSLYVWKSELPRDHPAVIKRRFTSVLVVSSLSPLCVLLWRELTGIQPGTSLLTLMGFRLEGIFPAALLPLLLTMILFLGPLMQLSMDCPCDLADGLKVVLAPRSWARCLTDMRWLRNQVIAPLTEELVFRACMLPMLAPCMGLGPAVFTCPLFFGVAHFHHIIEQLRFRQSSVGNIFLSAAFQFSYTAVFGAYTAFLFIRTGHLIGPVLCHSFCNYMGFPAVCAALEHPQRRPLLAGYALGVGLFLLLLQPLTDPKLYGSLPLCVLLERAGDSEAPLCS

[1] = target: Luciferin 4-monooxygenase (Photuris pensylvanica, UniProt Q27757); assay: inhibition of Cell Titer Glo luciferase signal – biochemical, luminescence, cherry-picks, counter-screen for HSF-1 reporter inhibitor project, dose response (AID 588847)
Chain of Luciferin 4-monooxygenase (Q27757 whole entry): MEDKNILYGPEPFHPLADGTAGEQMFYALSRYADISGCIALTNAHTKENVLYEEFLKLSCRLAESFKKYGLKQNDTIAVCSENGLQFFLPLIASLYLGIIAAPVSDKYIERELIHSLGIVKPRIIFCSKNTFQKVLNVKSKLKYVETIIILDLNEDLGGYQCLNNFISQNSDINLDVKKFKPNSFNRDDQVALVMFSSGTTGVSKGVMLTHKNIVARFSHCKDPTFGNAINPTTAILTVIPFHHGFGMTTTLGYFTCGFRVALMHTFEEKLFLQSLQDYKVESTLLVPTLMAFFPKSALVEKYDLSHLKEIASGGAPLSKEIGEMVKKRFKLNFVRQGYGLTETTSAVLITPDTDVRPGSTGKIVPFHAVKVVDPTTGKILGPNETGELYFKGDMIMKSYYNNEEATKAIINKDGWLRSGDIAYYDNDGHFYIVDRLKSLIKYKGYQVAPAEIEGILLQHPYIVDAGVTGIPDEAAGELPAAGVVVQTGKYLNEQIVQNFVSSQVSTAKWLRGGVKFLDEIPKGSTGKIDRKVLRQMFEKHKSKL

[2] = blockers of bursicon-stimulated LGR2 cAMP reporter – cell-based, HEK293, CRE-luciferase reporter, cherry pick, set 2, dose response (AID 743343); type: functional;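 note: transfected cells were stimulated with diluted bursicon conditioned medium after compound addition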
[3] = blockade of melanocortin 4 receptor signaling – cell-based, plate reader, cherry pick, counter-screen for LGR2 antagonist project, dose response (AID 743444); type: functional;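 note: transfected HEK 293 cells stimulated with alpha-MSH peptide; potency of inhibitors of the alpha-MSH evoked signal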
Escherichia coli = assay: microbe, parasite or virus in culture

CC(=O)NN1C(=O)c2ccccc2NC1c1ccoc1 (stereo unspecified)
AC50 (Trypsin): 32.4 µM (active) | AC50 (CAAX prenyl protease 2): > 100 µM (inactive)

CCS(=O)(=O)N1Cc2ccccc2CC1C(=O)Nc1nc2ccccc2s1 (stereo unspecified)
AC50 [1]: 15.2 µM (active) | AC50 [2]: 4.13 µM (active) | AC50 [3]: 4.56 µM (active)

COC(=O)c1ccc(Cl)cc1NC(=O)/C=C/c1ccc(C)o1
AC50 (Escherichia coli): 83 µM (active)
